In paper PMC10787358 (Science translational medicine, 2023):
“Also recorded” adds a separate entry of the source. Residues, ends and D or L forms follow the SMILES beside them. *: point of attachment. Cbz = O=C(OCc1ccccc1)*

How the values were obtained:
[1] = system: C57BL/6 mice; assay: 2-week tolerability study in male C57BL/6 mice; format: in vivo, mouse
[2] = system: cyclin D1 / cell cycle; assay: TMT-based quantitative proteomic analysis and cell cycle analysis; parameters: species or system human
[3] = biological target: SARS-CoV-2 PLpro (Severe acute respiratory syndrome coronavirus 2, UniProt P0DTD1); assay: SARS-CoV-2 PLpro enzymatic activity assay; format: biochemical; conditions: in vitro
[4] = system: ACE2 protein; assay: Immunoblot of ACE2 protein abundance in cell lines; format: cell-based, human; conditions: for reduction of ACE2 protein abundance: Calu-3, HepG2 and H1650 cells, 48 h
[5] = biological target: USP2 (Homo sapiens, UniProt O75604); assay: In vitro USP2 activity assay; format: biochemical
Sequence of USP2 (O75604 whole entry): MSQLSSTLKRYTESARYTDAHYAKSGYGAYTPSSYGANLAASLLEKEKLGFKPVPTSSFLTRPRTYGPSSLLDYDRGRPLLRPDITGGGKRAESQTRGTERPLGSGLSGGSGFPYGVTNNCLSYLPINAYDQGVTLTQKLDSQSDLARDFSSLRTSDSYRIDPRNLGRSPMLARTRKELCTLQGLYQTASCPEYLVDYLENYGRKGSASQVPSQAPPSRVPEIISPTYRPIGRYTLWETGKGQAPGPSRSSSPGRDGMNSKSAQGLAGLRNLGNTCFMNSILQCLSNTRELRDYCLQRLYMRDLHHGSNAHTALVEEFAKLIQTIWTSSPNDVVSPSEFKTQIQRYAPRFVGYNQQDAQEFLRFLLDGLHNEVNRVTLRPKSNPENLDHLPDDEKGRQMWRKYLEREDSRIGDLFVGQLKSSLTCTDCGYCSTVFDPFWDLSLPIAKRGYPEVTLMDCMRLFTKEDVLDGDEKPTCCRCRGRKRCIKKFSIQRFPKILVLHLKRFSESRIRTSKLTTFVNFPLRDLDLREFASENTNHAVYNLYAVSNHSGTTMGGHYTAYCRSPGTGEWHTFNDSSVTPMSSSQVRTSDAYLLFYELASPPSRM

[6] = system: SARS-CoV-2; format: in vivo, K18-hACE2 transgenic mice
[7] = system: HepG2 and Calu-3 cells
[8] = system: hCoV-OC43; assay: RT-qPCR of hCoV-OC43 in Huh7 cells; format: cell-based; conditions: Huh7 cells preinfected MOI 2 for 24 h, ML364 4 or 10 μM for 48 h
[9] = system: SARS-CoV-2 WT; format: in vivo, K18-hACE2 transgenic mice; conditions: 50 mg/kg daily
[10] = system: ACE2-dependent bat sarbecoviruses; format: cell-based
[11] = system: MERS-CoV pseudotype; format: cell-based
[12] = system: pseudotyped SARS-CoV-2; format: cell-based; conditions: for pseudotype entry of SARS-CoV-2 after 48 h pretreatment: ML364 5 μM, UDCA plus ZGG 10 μM, Calu-3, HepG2, H1650
[13] = system: SARS-CoV-2 WT; assay: TCID50 assay, authentic SARS-CoV-2 WT in pretreated Calu-3 cells; format: cell-based; conditions: Calu-3 cells pretreated 48 h, MOI 0.01, TCID50 over time
[14] = system: hCoV-NL63; assay: Cytopathic effect; format: cell-based; conditions: CPE assay; for inhibition of hCoV-NL63 infection: ACE2-dependent coronavirus
[15] = system: hCoV-OC43; assay: Cytopathic effect; format: cell-based; conditions: CPE assay, ACE2-independent strain
[16] = system: SARS-CoV PLpro; conditions: cited from earlier work
[17] = system: SARS-CoV-2 PLpro; assay: PLpro-dependent ACE2 deubiquitination and ACE2 abundance in cells; format: cell-based
[18] = system: SARS-CoV-2 Omicron BA.2 sublineage; parameters: species or system K18-hACE2 transgenic mice; conditions: mouse, in vivo
[19] = system: SARS-CoV-2 WT; assay: TCID50 assay, SARS-CoV-2 WT in NHBE cells; format: cell-based; conditions: preinfected MOI 0.01 for 1 h, 10 μM, 48 h
[20] = 50 mg/kg once a day or 35 mg/kg twice a day, 2 weeks

Cc1ccc(S(=O)(=O)Nc2cc(C(F)(F)F)ccc2C(=O)Nc2nc(-c3ccccc3)cs2)cc1 [ML364]
clinical signs [1, 20]: healthy without any clinical signs
plasma angiotensin-(1-7) concentration [1, 20]: did not lead to any noticeable reduction
ACE2 protein abundance in mouse tissues ([1]; pancreas, small intestine and lung of C57BL/6 mice): reduced abundance of ACE2 protein
cell cycle effect [2]: primarily cell cycle arrest
cyclin D1 protein (TMT) ([2]; TMT-based proteomics): significant (P = 3.3 × 10^−6) decrease
inhibition of SARS-CoV-2 PLpro [3]: inhibitory effects
time of peak plasma concentration (single intraperitoneal dose, male C57BL/6 mice): 30 min
reduction of ACE2 protein abundance [4]: reductions in ACE2 protein in all three cell lines
ACE2 protein abundance decrease ([4]; HepG2, 10 μM, within 12 hours of treatment): 50%
inhibition of USP2 activity [5]: inhibited USP2 activity
viral titers and SARS-CoV-2 E gene in lungs and small intestines ([6]; administration 6 hours after infection): decrease in viral titers
lung pathology ([6]; administration 6 hours after infection, versus vehicle): improved lung pathology
cytotoxicity by LDH release [7]: minimal cytotoxicity
activity against hCoV-OC43 [8]: did not observe any activity
ACE2 protein abundance in the lungs [9]: significantly (P = 0.01) reduced
viral loads in the lungs ([9]; 4 days before 6-day challenge): significant (P = 3.6 × 10^−6) decrease
lung pathology (H&E) ([9]; versus vehicle): reduction in overall lung pathology
pseudotype entry of ACE2-dependent bat sarbecoviruses [10]: promising activity
entry of MERS-CoV pseudotype [11]: did not prevent the entry
SARS-CoV-2 pseudovirus entry into cells ([12]; HepG2, ML364 5 μM): obvious reduction
pseudotype entry of SARS-CoV-2 after 48 h pretreatment [12]: prevented the pseudotype entry
viral replication of SARS-CoV-2 WT [13]: obvious reduction
inhibition of hCoV-NL63 infection [14]: effective
IC50 ([14]; read-out: IC50 against hCoV-NL63): ~180 nM
inhibition of hCoV-OC43 infection [15]: limited or no activity

Nc1nc2[nH]cnc2c(=S)[nH]1 [6TG]
SARS-CoV PLpro protease activity [16]: inhibit

Cc1ccc(N)cc1C(=O)N[C@H](C)c1cccc2ccccc12 [GRL0617]
activity toward USP2 ([5]; even at 100 μM): no obvious activity
infection-induced reduction of ACE2 [17]: failed to prevent the infection-induced reduction of ACE2
PLpro-induced ACE2 deubiquitination ([17]; in cells): diminished PLpro-induced ACE2 deubiquitination

CC(C)C[C@@H](C=O)NC(=O)[C@H](CC(C)C)NC(=O)[C@H](CC(C)C)NC(=O)OCc1ccccc1 [MG132] (Cbz-Leu-Leu-Leu-aldehyde)
ACE2 protein accumulation ([4]; HepG2 cells with cycloheximide): noticeable ACE2 protein accumulation

CC(O)c1cc(C(=O)N[C@@H](C)Cn2ccc(-c3ccc(C#N)c(Cl)c3)n2)[nH]n1 (some centres unmarked) [ODM-201]
reduction of ACE2 protein abundance [4]: mild efficacy

C/C=C1\C(=O)C[C@H]2[C@@H]3CCC4=CC(=O)CC[C@]4(C)[C@H]3CC[C@]12C [ZGG, z-guggulsterone]
pseudotype entry of SARS-CoV-2 after 48 h pretreatment [12]: only showed mild effects

C[C@H](CCC(=O)O)[C@H]1CC[C@H]2[C@@H]3[C@@H](O)C[C@@H]4C[C@H](O)CC[C@]4(C)[C@H]3CC[C@]12C [UDCA, ursodeoxycholic acid]
reduction of ACE2 protein abundance [4]: only mildly reduced ACE2 protein
pseudotype entry of SARS-CoV-2 after 48 h pretreatment [12]: only showed mild effects; also recorded: mild effect
inhibition of hCoV-NL63 infection [14]: no inhibitory activity
inhibition of hCoV-OC43 infection [15]: no inhibitory activity

S=c1nc[nH]c2nc[nH]c12 [6MP]
SARS-CoV PLpro protease activity [16]: inhibit

Cc1ccc(S(=O)(=O)Nc2ccc(C(F)(F)F)cc2C(=O)Nc2nc(-c3ccc(Br)cc3)cs2)cc1 [MS102]
peak plasma concentration relative to ML364 (C57BL/6 mice): approximately threefold
plasma concentration 24 hours after administration relative to ML364 (C57BL/6 mice): approximately 2500 times
oral bioavailability (male C57BL/6 mice, p.o. 50 mg/kg, i.v. 5 mg/kg): ~100%
inhibition of USP2 activity [5]: slightly enhanced activity
therapeutic efficacy (TCID50, lung pathology) compared with ML364 ([6]; mouse, in vivo): enhanced efficacy compared with ML364
cytotoxicity by LDH release [7]: minimal cytotoxicity
entry of ACE2-dependent pseudotypes compared with ML364 ([12]; HepG2, 5 μM, 24 h pretreatment): enhanced activity
survival extension versus vehicle-treated control [18]: 3 days
blocking infection of NHBE cells compared with ML364 [19]: improved efficacy
inhibition of hCoV-NL63 infection [14]: effective
inhibition of hCoV-OC43 infection [15]: limited or no activity

CCC(CC)COC(=O)[C@H](C)N[P@](=O)(OC[C@H]1O[C@@](C#N)(c2ccc3c(N)ncnn23)[C@H](O)[C@@H]1O)Oc1ccccc1 [remdesivir]
inhibition of hCoV-NL63 infection [14]: active
inhibition of hCoV-OC43 infection [15]: active
